Measured values taken from ChEMBL document CHEMBL1122521, “Nucleic acid related compounds. 47. Synthesis and biological activities of pyrimidine and purine "acyclic" nucleoside analogues” (J Med Chem, 1984).
In brackets after ≈: the same amount, converted by molar mass.

Tests used:
Assay type in all cases: functional
[1] = system: L1210; assay: Inhibitory concentration required to reduce [3H1',2']dUrd incorporation into cellular DNA by 50% in Murine Leukemia L1210 cells; conditions: Mus musculus, read-out: ID50 (the source's name)
[2] = system: L1210; assay: Inhibitory concentration required to reduce [3H-methyl]-dThd C incorporation into cellular DNA by 50% in Murine Leukemia L1210 cells; conditions: Mus musculus, read-out: ID50 (the source's name)
[3] = system: L1210; assay: Inhibitory concentration required to reduce cell growth of Murine Leukemia L1210 cells; conditions: Mus musculus, read-out: ID50 (the source's name)
[4] = Inhibitory concentration required to reduce incorporation of 2-deoxyuridine (dUrd) into DNA of Primary Rabbit kidney (PRK) cell cultures; conditions: Oryctolagus cuniculus, read-out: ID50 (the source's name)
[5] = Ratio of ID50 for dThd or dUrd incorporation to ID50 for HSV-1, HSV-2 or VV(whatever was lowest)
[6] = system: Human alphaherpesvirus 2; assay: Concentration required to reduce cytopathogenicity of Herpes simplex virus type 2 (strain G) by 50% in primary rabbit kidney (PRK) cells
[7] = system: Vesicular stomatitis virus; assay: Concentration required to reduce cytopathogenicity of Vesicular stomatitis virus by 50% in primary rabbit kidney (PRK) cells
[8] = Inhibitory concentration required to reduce incorporation of 2-deoxythymidine (dThd) into DNA of Primary Rabbit kidney (PRK) cell cultures; conditions: Oryctolagus cuniculus, read-out: ID50 (the source's name)
[9] = system: Human alphaherpesvirus 1; assay: Concentration required to reduce cytopathogenicity of Herpes simplex virus type 1 (strain KOS) by 50% in primary rabbit kidney (PRK) cells
[10] = system: L1210; assay: Inhibitory concentration required to reduce [3H1',2']dUrd incorporation into cellular DNA by 50 %; conditions: Mus musculus, read-out: ID50 (the source's name)
[11] = Inhibitory concentration required to reduce 2-deoxyuridine ([3H-1'2']dUrd) incorporation into DNA of Primary Rabbit kidney (PRK) cell cultures; conditions: Oryctolagus cuniculus, read-out: ID50 (the source's name)
[12] = system: L1210; assay: Inhibitory concentration required to reduce [14C-2]-dUrd incorporation into cellular DNA by 50% in Murine Leukemia L1210 cells; conditions: Mus musculus, read-out: ID50 (the source's name)

SMILES | IC50 [1] [µg/mL] | IC50 [2] [µg/mL] | IC50 [3] [µg/mL] | IC50 [4] [µg/mL] | Antiviral index [5] | ID50 [6] [µg/mL] | ID50 [7] [µg/mL] | IC50 [8] [µg/mL] | ID50 [9] [µg/mL] | IC50 [10] [µg/mL] | IC50 [11] [µg/mL] | IC50 [12] [µg/mL]
Nc1ncnc2c1ncn2COCCO | > 1000 | > 1000 | 19 (≈ 90.8 µM) | 22 (≈ 105 µM) | 2.2 | 10 (≈ 47.8 µM) | >400 | 49 (≈ 234 µM) | 10 (≈ 47.8 µM) |  |  | 
CN(C)c1nc2c(=O)[nH]c(N)nc2n1COCCO |  | > 500 | > 500 | > 400 | 13 | 250 (≈ 932 µM) | >400 | > 400 | 30 (≈ 112 µM) | > 500 |  | 
CC(=O)OCCOCn1cnc2c(Cl)ncnc21 | 233 (≈ 861 µM) | 475 (≈ 1750 µM) | 44 (≈ 163 µM) | 62 (≈ 229 µM) | 3 | 70 (≈ 259 µM) | >400 | 60 (≈ 222 µM) | 70 (≈ 259 µM) |  |  | 
CC(=O)OCCOCn1cc(/C=C/Br)c(=O)[nH]c1=O | > 1000 | > 1000 | > 1000 | > 400 |  | >400 |  | > 200 | >400 |  |  | 
OCCOCn1cnc2c(O)ncnc21 | > 1000 | > 1000 | > 1000 |  |  | >400 |  | > 100 | >400 |  | > 100 | 
O=c1[nH]c(=O)n(COCCO)cc1Br | > 1000 | > 1000 | > 1000 | > 400 |  | >400 |  | > 400 | >400 |  |  | 
O=c1[nH]c(=O)n([C@H]2C[C@H](O)[C@@H](CO)O2)cc1F [FLOXURIDINE] |  | 80 (≈ 325 µM) | 0.001 (≈ 0.00406 µM) |  |  |  |  |  |  |  |  | 0.003 (≈ 0.0122 µM)
O=c1[nH]c(=O)n(COCCO)cc1/C=C/Br | > 1000 | > 1000 | > 1000 | > 400 |  | >400 |  | > 200 | >400 |  |  | 
Nc1nc2c(nc(N)n2COCCO)c(=O)[nH]1 |  | 500 (≈ 2080 µM) | > 500 | 200 (≈ 833 µM) | 667 | 0.3 (≈ 1.25 µM) | >100 | 290 (≈ 1210 µM) | 0.7 (≈ 2.91 µM) | 500 (≈ 2080 µM) |  | 
Nc1nc2c(nc(I)n2COCCO)c(=O)[nH]1 |  | > 1000 | 39 (≈ 111 µM) | ≥ 250 | 625 | 0.4 (≈ 1.14 µM) | >400 | ≥ 350 | 0.4 (≈ 1.14 µM) | > 1000 |  | 
O=c1cc(O)ccn1COCCO | > 1000 | > 1000 | > 1000 | > 400 |  | >400 |  | > 400 | >400 |  |  | 
CC(=O)OCCOCn1cnc2c(Cl)nc(Cl)nc21 | 98 (≈ 321 µM) | 412 (≈ 1350 µM) | 12 (≈ 39.3 µM) | 2 (≈ 6.55 µM) | 1 | >10 |  | 10 (≈ 32.8 µM) | 2 (≈ 6.55 µM) |  |  | 
Nc1nc2c(ncn2COCCO)c(=O)[nH]1 [ACYCLOVIR] | 50 (≈ 222 µM) | 367 (≈ 1630 µM) | 13 (≈ 57.7 µM) |  | 300 | 0.04 (≈ 0.178 µM) | >400 | 12 (≈ 53.3 µM) | 0.05 (≈ 0.222 µM) |  | 13 (≈ 57.7 µM) | 
Nc1nc2c(nc(Br)n2COCCO)c(=O)[nH]1 |  | > 500 | 355 (≈ 1170 µM) | 225 (≈ 740 µM) | 450 | 0.5 (≈ 1.64 µM) | >400 | 340 (≈ 1120 µM) | 0.5 (≈ 1.64 µM) | > 500 |  | 
Cc1nc2c(O)nc(N)nc2n1COCCO | > 500 | > 500 | 323 (≈ 1350 µM) | > 400 | > 800 | 0.5 (≈ 2.09 µM) | >400 | > 400 | 0.5 (≈ 2.09 µM) |  |  | 
O=c1[nH]c(=O)n(COCCO)cc1F | > 1000 | > 1000 | > 1000 | > 400 |  | >400 |  | > 400 | >400 |  |  | 
O=c1[nH]c(=O)n(COCCO)cc1I | > 1000 | > 1000 | > 1000 | > 400 |  | >400 |  | > 400 | >400 |  |  | 
